According to publication PMC5919439, “Isolation and molecular characterization of novel glucarpidases: Enzymes to improve the antibody directed enzyme pro-drug therapy for cancer treatment” (PLoS ONE, 2018):

Target: Ps CPG2 (Pseudomonas sp. RS-16, UniProt P06621)
Assay: decrease in absorbance at […] nm, plate reader, initial rates
Assay type: biochemical
Conditions: 0.1 M Tris-HCl pH 7.3, 0.2 mM ZnSO4, 37°C, 0.03-0.42 mM MTX; apparent Km

Ps CPG2, sequence (P06621 23-415): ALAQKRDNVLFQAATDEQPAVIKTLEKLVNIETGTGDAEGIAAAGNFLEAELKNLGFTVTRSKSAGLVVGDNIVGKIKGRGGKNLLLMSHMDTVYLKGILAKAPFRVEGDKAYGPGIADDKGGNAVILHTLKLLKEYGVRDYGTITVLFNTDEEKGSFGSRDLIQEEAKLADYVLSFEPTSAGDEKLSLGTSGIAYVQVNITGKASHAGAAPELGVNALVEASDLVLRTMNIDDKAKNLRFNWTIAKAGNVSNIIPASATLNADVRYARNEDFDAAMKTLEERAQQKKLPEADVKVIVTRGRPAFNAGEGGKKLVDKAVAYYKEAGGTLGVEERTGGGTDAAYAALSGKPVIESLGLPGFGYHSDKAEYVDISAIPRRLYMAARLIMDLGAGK

- Km: 172 µM
SMILES: CN(Cc1cnc2nc(N)nc(N)c2n1)c1ccc(C(=O)N[C@@H](CCC(=O)O)C(=O)O)cc1 [methotrexate]
